From ChEMBL document CHEMBL3507680, “University of Dundee, Gates Library screen for HepG2 cell viability”

Test: Human HepG2 cell viability assay in 384 well format
Assay type: toxicity, cell-based
Parameters: dose 125 nL, time 70.5 hour; concentration not given beside the values
Conditions: HepG2 cells, read-out: Inhibition

Row | SMILES | cytotoxicity at 70.5 h
1 | COCC(NC1CCN(CC(C)C)CC1)c1ccnn1C (centres undefined) | -6.73%
2 | Cc1nc2c(c(=O)[nH]1)CN(C(=O)CC[C@@H]1CCCN3CCCC[C@H]13)C2 | 24.5%
3 | CCC1CN(C(=O)c2cccnc2O)CCC(=O)N1Cc1ccccc1 (centres undefined) | -3.15%
4 | COc1ccc(CCNC(=O)CN2CCOCS2(=O)=O)cc1 | -8.13%
5 | CC[C@@H]1N(C)CCC[C@]12CCC(=O)N2Cc1ccncc1 | 0.423%
6 | CNC(=O)C(NC(C)=O)c1ccc(F)c(F)c1 (centres undefined) | -1.65%
7 | CC(C)c1nc(C2CCCN(C(=O)c3ccc4nccn4c3)C2)no1 (centres undefined) | -3.59%
8 | Cc1ccsc1C(O)CNC(=O)Cc1ccc(S(=O)(=O)C(C)C)cc1 (centres undefined) | -13.3%
9 | Cc1cc(C2CCC2)nc(N2CCN(Cc3nccn3C)CC2)n1 | -1.45%
10 | COc1ccc2nc(CNC(=O)C3CC4(CCNCC4)CN3C)[nH]c2c1 (centres undefined) | -20.5%
11 | N#CCCN(Cc1ccco1)C(=O)c1ccc(OCC2CC2)cc1 | -4.89%
12 | O=C(C1CC1)N1CCC(O)(CN2CCN(c3ccccc3)CC2)C1 (centres undefined) | -4.63%
13 | CC(C)Cn1cc(NC(=O)NCC2CCN(c3ccccc3)C2)cn1 (centres undefined) | -0.00229%
14 | CC(C)CNC1(Cc2cc(-c3ccccc3)on2)COC1 | -6.11%
15 | Cc1cnn(CC2CCCN2CC(=O)N(C)Cc2ccco2)c1 (centres undefined) | -4.69%
16 | CCc1nc(C2CCCN(C(=O)c3ccc4[nH]nnc4c3)C2)no1 (centres undefined) | -11%
17 | Cc1ncc2c(n1)CN(Cc1cn3ccsc3n1)CC2 | -0.474%
18 | N#Cc1cccc(C(=O)N2CCC(Nc3cccnn3)CC2)c1 | -19.9%
19 | Cc1cc(C)n(CC2CCCCN2C(=O)CCc2ccncc2)n1 (centres undefined) | -0.893%
20 | C[C@@H]1CN(C2CCN(c3ccccc3F)CC2)C[C@]1(C)O | -6.48%
21 | Cc1cc(C2CCCN2C(=O)c2cc3c(s2)CCC3)no1 (centres undefined) | -0.925%
22 | Cn1nc(COc2cccnc2)c2c1CCN(c1cnccn1)C2 | -14.9%
23 | CCCNC(=O)C1CCCN(Cc2csc(C(C)(C)C)n2)C1 (centres undefined) | 17.8%
24 | N#Cc1ccc(OCCNc2cccc(C(=O)N3CCOCC3)c2)cc1 | -13.9%
25 | CN(C)S(=O)(=O)N1CCCC(c2cccc(Cc3ccccc3)n2)C1 (centres undefined) | 19%
26 | CN1CC(C(=O)NCCc2ccc(Br)cc2F)CC1=O (centres undefined) | -19.2%
27 | Cc1c(C(C)NC2CSCCSC2)cnn1-c1ccc(F)cc1F (centres undefined) | -9.32%

Row | SMILES | cytotoxicity at 70.5 h
28 | CC(C)Cc1cc(NC(=O)c2ccc(=O)[nH]n2)n(C)n1 | -2.14%
29 | COCC1COCCC12CCN(Cc1cccs1)CC2 (centres undefined) | -7.86%
30 | O=C(NCc1ccc(N2CCSCC2)cc1)NCc1cc[nH]n1 | -10.4%
31 | Cc1cnc(N2CCC3(CC2)CC(NS(C)(=O)=O)CO3)nc1 (centres undefined) | 1.23%
32 | COc1c(CNCc2ccnc(N3CCCCC3)c2)c(C)nn1C | 24.3%
33 | O=S(=O)(CC1CCCO1)Nc1cc(Cl)ccc1-n1cccn1 (centres undefined) | 2.79%
34 | CC(CO)Nc1ccc(-c2nc(Cc3ccc(F)cc3)no2)cn1 (centres undefined) | -2.07%
35 | Cc1ccc(N2CCC3(CCCN(C(=O)c4cnccn4)C3)C2)nn1 (centres undefined) | 1.5%
36 | O=C1CC(c2ccncc2)c2c(c(C(=O)O)cn2-c2ccccc2)N1 (centres undefined) | -8.17%
37 | COc1ccc(CN2C[C@H]3C[C@H](CN(C)C)O[C@H]3C2)cc1 | -5.86%
38 | CCCc1cc(C(=O)N2C[C@@H](C)[C@](O)(C3CCC3)C2)[nH]n1 | 8.19%
39 | COc1ccccc1CNC(C)c1ccc2[nH]c(=O)[nH]c2c1 (centres undefined) | 1.17%
40 | CN1CCN(Cc2cnc3n2CCN(Cc2cccnc2)CC3)CC1 | -1.41%
41 | CCNc1nc(C)c(C(=O)N(C)Cc2nc(-c3ccncc3)no2)s1 | 1.19%
42 | Cc1ccc(C)c(NC(=O)c2cc(S(=O)(=O)N3CCSCC3)c[nH]2)c1 | 7.14%
43 | CCN(CC)Cc1ccc(C(=O)N2CCCC2c2cnn(C)c2)o1 (centres undefined) | 21.2%
44 | Cc1noc([C@@H]2C[C@@H]3CCN(CC4CCOCC4)C[C@H]3O2)n1 | -4.62%
45 | COCCN1C(=O)[C@H]2CC[C@@H]1CN(C(=O)Cc1c(F)cccc1Cl)C2 | -8.61%
46 | Cc1ccc(CNCc2ccc(N3CCC(CO)CC3)nc2)c(C)c1 | -5.56%
47 | CCOC(=O)C1CCN(CCCc2nnnn2-c2ccccc2)CC1 | -3.5%
48 | O=C(CC1=CCCCC1)NCc1ccnc(OC2CCOCC2)c1 | -6.35%
49 | CN(Cc1nccn1C)S(=O)(=O)c1cccc(C#N)c1 | -1.58%
50 | COC(=O)c1sc2cccc(F)c2c1CNC(=O)C1CC1 | 1.14%
51 | Cc1cc(C)c(Cn2cncn2)cc1CN1CC[C@H]2CC[C@@H](C1)N2 | 2.8%
52 | CCn1cc(NC(=O)NC2CCCc3c2cnn3CCO)cn1 (centres undefined) | -2.96%
53 | CCc1ccccc1CN1CC[C@@]2(O)CCN(S(=O)(=O)N(C)C)C[C@H]2C1 | -3.87%
54 | CCC1CN(C(=O)NCc2cccnc2-n2cccn2)CCO1 (centres undefined) | -5.61%

Row | SMILES | cytotoxicity at 70.5 h
55 | Cc1cnn(C2CN(CCOc3ccc(C#N)cc3)C2)c1 | -5.99%
56 | CC(C)(C)C(=O)N1CCC(c2nc(O)cc(-c3ccccn3)n2)CC1 | 16%
57 | COc1c(C2CCCN2Cc2noc(C(C)C)n2)c(C)nn1C (centres undefined) | 28.5%
58 | Cc1cccc(NC(=O)N2CC(C(=O)NC(C)C)C3(CCOCC3)C2)c1 (centres undefined) | 9.15%
59 | CCc1cc(C(F)(F)F)c2c(C3CCN(C(=O)COC)CC3)noc2n1 | -6.22%
60 | Cc1cc(C)n(C2CCCN(C(=O)Cc3cccs3)C2)n1 (centres undefined) | 11%
61 | O=C(C1CCOCC1)N1CCO[C@H]2[C@H](Oc3cccnc3)CC[C@@H]21 | -3.29%
62 | CCN1CCN2CCCN(S(=O)(=O)c3ccc(S(C)(=O)=O)cc3)C2C1=O (centres undefined) | -7.94%
63 | CN(Cc1nc2ccccc2[nH]1)C(=O)CN(C)c1ccccc1 | -2.68%
64 | C=C(C)CN1CCC(NC(=O)Nc2ccc(F)c(C(=O)NC)c2)CC1 | 21.9%
65 | CNC(=O)C1(c2cnccn2)CCCN1C(=O)c1ccc(F)cc1 (centres undefined) | 22.8%
66 | O=C1CCC(=O)N1c1nn(Cc2ccc(F)cc2)cc1Cl | 18.7%
67 | FC1(F)CCN(Cc2ccncc2)CC12CCN(c1cnccn1)C2 (centres undefined) | -8.66%
68 | Cc1cccnc1CNC(=O)N(CCCO)C1CCc2ccccc21 (centres undefined) | -12.3%
69 | O=C(CN1CCOC1=O)N1CCc2nnc(Cc3ccccc3)n2CC1 | 17.1%
70 | C[C@@H]1CN(Cc2c[nH]c(CC3CCCC3)n2)CC[C@]1(C)O | -9.37%
71 | Cc1nnc(NCC(c2ccco2)N2CCCCC2)c(C#N)c1C (centres undefined) | -0.616%
72 | NC(=O)C1CCN(C(=O)c2ccc(OCc3cscn3)cc2)CC1 | 55.1%
73 | CN(C)CCn1nc(C2CCN(Cc3ccccc3)C2)c2cccnc21 (centres undefined) | 31.8%
74 | CCN1CC(CN2CCOCC2)Oc2ncccc2C1=O (centres undefined) | 13.2%
75 | OC1(CNCCN2CCc3ccccc32)CNCCOC1 (centres undefined) | -11%
76 | Cc1noc([C@H]2C[C@@H]3CCN(C(=O)N(C)C)C[C@H]3O2)n1 | -4.62%
77 | COc1ccnc(N2CCN(C(=O)c3csc(C(C)C)n3)CC2)n1 | 9.24%
78 | CSCCC(=O)N1CC[C@@H](N2CCN(c3ccccc3F)CC2)[C@H](O)C1 | 33.8%
79 | Cc1ccoc1C(=O)N1CC[C@@H]2O[C@@H](C)C[C@H]2C1 | 0.684%
